For 29 compounds, IC50 results are on record in patent US9708316B2 (BRISTOL-MYERS SQUIBB COMPANY, priority 2014, dated 2017).

For one test, the target named is T1, HIS-TGFβR1 T204D (Homo sapiens, UniProt P36897, T204D).
T1 sequence (P36897 34-503 T204D): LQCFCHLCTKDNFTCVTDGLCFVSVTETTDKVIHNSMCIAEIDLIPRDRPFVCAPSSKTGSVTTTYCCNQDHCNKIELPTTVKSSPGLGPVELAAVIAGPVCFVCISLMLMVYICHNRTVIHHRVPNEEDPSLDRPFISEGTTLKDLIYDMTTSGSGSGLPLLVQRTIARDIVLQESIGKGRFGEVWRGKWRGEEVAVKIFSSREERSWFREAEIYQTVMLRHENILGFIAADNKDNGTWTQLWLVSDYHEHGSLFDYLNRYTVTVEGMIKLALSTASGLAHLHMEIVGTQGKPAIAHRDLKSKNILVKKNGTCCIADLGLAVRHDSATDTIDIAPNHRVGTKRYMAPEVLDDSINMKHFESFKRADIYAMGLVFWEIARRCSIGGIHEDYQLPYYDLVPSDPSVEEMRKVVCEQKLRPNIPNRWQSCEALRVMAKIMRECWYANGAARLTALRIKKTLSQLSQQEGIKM
Nature of the test: HTRF probe-displacement assay, HIS-TGFβR1 T204D. Type of test: binding. As to conditions: read-out: TGFβR1 (μM) IC50. On the technique in general: Time-resolved FRET reads energy transfer from a long-lived donor to a nearby acceptor.

The next test addresses HIS-TGFβR2 WT (Homo sapiens, UniProt P37173). Description: HTRF probe-displacement assay, HIS-TGFβR2 WT. Format: binding.

Each structure is given as a SMILES string.

Chain of HIS-TGFβR2 WT (P37173 23-567): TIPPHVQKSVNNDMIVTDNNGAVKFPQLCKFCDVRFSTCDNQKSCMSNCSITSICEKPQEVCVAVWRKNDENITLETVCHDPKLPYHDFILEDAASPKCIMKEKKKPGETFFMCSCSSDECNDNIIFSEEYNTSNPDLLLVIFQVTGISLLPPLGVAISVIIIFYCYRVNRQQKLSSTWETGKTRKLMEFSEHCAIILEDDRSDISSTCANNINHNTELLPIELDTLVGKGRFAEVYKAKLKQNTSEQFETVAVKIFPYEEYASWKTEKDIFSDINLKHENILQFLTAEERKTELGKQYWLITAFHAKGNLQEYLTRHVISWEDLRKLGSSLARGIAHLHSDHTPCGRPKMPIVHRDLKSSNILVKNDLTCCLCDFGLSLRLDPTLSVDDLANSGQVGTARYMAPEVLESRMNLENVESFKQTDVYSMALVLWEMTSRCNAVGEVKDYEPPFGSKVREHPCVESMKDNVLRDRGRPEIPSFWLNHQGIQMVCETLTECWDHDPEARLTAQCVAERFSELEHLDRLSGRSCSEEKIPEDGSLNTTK

One may read the IC50 as the concentration needed to halve the response being measured. On to `CC(=O)Nc1cc(-c2[nH]c3c(C(C)F)ccnc3c2-c2cccc(C(F)F)n2)ccn1` (stereo not shown) [Example 233, N-(4-(3-(6-(Difluoromethyl)pyridin-2-yl)-7-(1-fluoroethyl)-1H-pyrrolo[3,2-b]pyridin-2-yl)pyridin-2-yl)acetamide], for which the concentration for half-maximal inhibition (IC50) amounted to 0.0014 µM at HIS-TGFβR1 T204D and 4.06 µM on HIS-TGFβR2 WT.
The matching figures for `CC(=O)Nc1cc(-c2[nH]c3nccnc3c2-c2cccc(Cl)n2)ccn1` [Example 55, N-{4-[7-(6-Chloropyridin-2-yl)-5H-pyrrolo[2,3-b]pyrazin-6-yl]pyridin-2-yl}acetamide]: 0.003 µM and 0.069 µM.
The matching figures for `CC(=O)Nc1cc(-c2[nH]c3cccnc3c2-c2ncc(C)s2)ccn1` [Example 202, N-(4-(3-(5-Methylthiazol-2-yl)-1H-pyrrolo[3,2-b]pyridin-2-yl)pyridin-2-yl)acetamide]: 0.0015 µM and 0.225 µM.
Take `CCC(OC(N)=O)c1ccnc2c(-c3ccc(OC)nc3)c(-c3ccnc(NC(C)=O)c3)[nH]c12` (stereo not shown) [Example 302, 1-(2-(2-Acetamidopyridin-4-yl)-3-(6-methoxypyridin-3-yl)-1H-pyrrolo[3,2-b]pyridin-7-yl)propyl carbamate]: the figures for the IC50 on HIS-TGFβR1 T204D and at HIS-TGFβR2 WT were 0.001 µM and 0.723 µM, respectively.
In the same order, the values of `COc1cccc(-c2c(-c3ccnc(NC(C)=O)c3)[nH]c3cccnc23)n1` [Example 2, N-{4-[3-(6-Methoxypyridin-2-yl)-1H-pyrrolo[3,2-b]pyridin-2-yl]pyridin-2-yl}acetamide] are 0.006 µM and 7.85 µM.
The matching figures for `CC(=O)Nc1cc(-c2[nH]c3c(C(=O)NC(CO)CO)cc(Cl)nc3c2-c2cccnc2)ccn1` [Example 60, 5-Chloro-N-(1,3-dihydroxypropan-2-yl)-2-(2-acetamidopyridin-4-yl)-3-(pyridin-3-yl)-1H-pyrrolo[3,2-b]pyridine-7-carboxamide]: 0.32 µM and 6.65 µM.
In the same order, the values of `CC(=O)Nc1cc(-c2[nH]c3ccc(F)nc3c2-c2cccc(Cl)n2)ccn1` [Example 34, N-{4-[3-(6-Chloropyridin-2-yl)-5-fluoro-1H-pyrrolo[3,2-b]pyridin-2-yl]pyridin-2-yl}acetamide] are 0.002 µM and 0.13 µM.
With `CC(=O)Nc1cc(-c2[nH]c3cc(Cl)cnc3c2-c2ccc(Cl)cn2)ccn1` [Example 46, N-{4-[6-Chloro-3-(5-chloropyridin-2-yl)-1H-pyrrolo[3,2-b]pyridin-2-yl]pyridin-2-yl}acetamide], the results for the 50% inhibitory concentration (IC50) at HIS-TGFβR1 T204D and on HIS-TGFβR2 WT were 0.008 µM and > 15 µM, respectively.
`CC(=O)Nc1cc(-c2[nH]c3cc(Cl)cnc3c2-c2cccc(NCCO)n2)ccn1` [Example 68, N-[4-(6-Chloro-3-{6-[(2-hydroxyethyl)amino]pyridin-2-yl}-1H-pyrrolo[3,2-b]pyridin-2-yl)pyridin-2-yl]acetamide]: the IC50 at HIS-TGFβR1 T204D is 0.96 µM; at HIS-TGFβR2 WT it was > 15 µM.
The matching figures for `CC(=O)Nc1cc(-c2[nH]c3cccnc3c2-c2nc(CO)cs2)ccn1` [Example 204, N-(4-(3-(4-(Hydroxymethyl)thiazol-2-yl)-1H-pyrrolo[3,2-b]pyridin-2-yl)pyridin-2-yl)acetamide]: 0.0055 µM and 0.111 µM.
On to `CC(=O)Nc1cc(-c2[nH]c3cccnc3c2-c2ccc(C(F)F)cn2)ccn1` [Example 108, N-(4-(3-(5-(Difluoromethyl)pyridin-2-yl)-1H-pyrrolo[3,2-b]pyridin-2-yl)pyridin-2-yl)acetamide], for which the IC50 on HIS-TGFβR1 T204D was 0.145 µM; on HIS-TGFβR2 WT, > 15 µM.
In the case of `CCN1CCN(CC(=O)Nc2cc(-c3[nH]c4cc(Cl)cnc4c3-c3ccc(OC)cn3)ccn2)CC1` [Example 251, N-(4-(6-Chloro-3-(5-methoxypyridin-2-yl)-1H-pyrrolo[3,2-b]pyridin-2-yl)pyridin-2-yl)-2-(4-ethylpiperazin-1-yl)acetamide], the IC50 at HIS-TGFβR1 T204D is 0.005 µM; on HIS-TGFβR2 WT, > 15 µM.
The matching figures for `CC(=O)Nc1cc(-c2[nH]c3cccnc3c2-c2cccc(OC(F)F)n2)ccn1` [Example 174, N-(4-(3-(6-(Difluoromethoxy)pyridin-2-yl)-1H-pyrrolo[3,2-b]pyridin-2-yl)pyridin-2-yl)acetamide]: 0.0034 µM and > 15 µM.
The matching figures for `CC(=O)Nc1cc(-c2[nH]c3cccnc3c2-c2cnn(C)c2)ccn1` [Example 187, N-(4-(3-(1-Methyl-1H-pyrazol-4-yl)-1H-pyrrolo[3,2-b]pyridin-2-yl)pyridin-2-yl)acetamide]: 0.0587 µM and 0.424 µM.
Consider `COc1ccc(-c2c(-c3ccnc(NC(C)=O)c3)[nH]c3c(OC)ccnc23)nc1` [Example 266, N-(4-(7-Methoxy-3-(5-methoxypyridin-2-yl)-1H-pyrrolo[3,2-b]pyridin-2-yl)pyridin-2-yl)acetamide], for which the IC50 on HIS-TGFβR1 T204D was 0.005 µM; at HIS-TGFβR2 WT, > 15 µM.
`CC(=O)Nc1cc(-c2[nH]c3c(C4CCOCC4)ccnc3c2-c2cccc(C)n2)ccn1` [Example 136, N-{4-[3-(6-Methylpyridin-2-yl)-7-(oxan-4-yl)-1H-pyrrolo[3,2-b]pyridin-2-yl]pyridin-2-yl}acetamide]: the IC50 is 0.006 µM at HIS-TGFβR1 T204D and > 15 µM on HIS-TGFβR2 WT.
As for `COc1ccc(-c2c(-c3ccnc(NC(C)=O)c3)[nH]c3cc(N4CCC(CO)CC4)cnc23)nc1` [Example 161, N-(4-(6-(4-(Hydroxymethyl)piperidin-l-yl)-3-(5-methoxypyridin-2-yl)-1H-pyrrolo[3,2-b]pyridin-2-yl)pyridin-2-yl)acetamide], the half-maximal inhibitory concentration (IC50) on HIS-TGFβR1 T204D is 0.0126 µM; at HIS-TGFβR2 WT it was > 15 µM.
In the same order, the values of `CC(=O)Nc1cc(-c2[nH]c3c(C(F)F)ccnc3c2-c2cccc(C(F)F)n2)ccn1` [Example 149, N-{4-[7-(Difluoromethyl)-3-[6-(difluoromethyl)pyridin-2-yl]-1H-pyrrolo[3,2-b]pyridin-2-yl]pyridin-2-yl}acetamide] are 0.002 µM and 8.37 µM.
In the same order, the values of `COc1ccnc2c(-c3ccc(F)cn3)c(-c3ccnc(NC(C)=O)c3)[nH]c12` [Example 268, N-(4-(3-(5-Fluoropyridin-2-yl)-7-methoxy-1H-pyrrolo[3,2-b]pyridin-2-yl)pyridin-2-yl)acetamide] are 0.005 µM and 2.45 µM.
The matching figures for `COc1ccc(-c2c(-c3ccnc(NCC(C)C)c3)[nH]c3cc(Cl)cnc23)nc1` [Example 243, 4-(6-Chloro-3-(5-methoxypyridin-2-yl)-1H-pyrrolo[3,2-b]pyridin-2-yl)-N-isobutylpyridin-2-amine]: 0.361 µM and ≥ 15 µM.
On to `COc1ccc(-c2c(-c3ccnc(N)c3)[nH]c3cc(Cl)cnc23)nc1` [Example 86, 4-[6-Chloro-3-(5-methoxypyridin-2-yl)-1H-pyrrolo[3,2-b]pyridin-2-yl]pyridin-2-amine], for which the values for the 50% inhibitory concentration (IC50) on HIS-TGFβR1 T204D and at HIS-TGFβR2 WT were 0.008 µM and > 15 µM, respectively.
Consider `CC(=O)Nc1cc(-c2[nH]c3cccnc3c2-c2ccc3[nH]ccc3c2)ccn1` [Example 20, N-{4-[3-(1H-Indol-5-yl)-1H-pyrrolo[3,2-b]pyridin-2-yl]pyridin-2-yl}acetamide], for which the IC50 amounted to 0.005 µM at HIS-TGFβR1 T204D and 1.69 µM on HIS-TGFβR2 WT.
In the case of `CC(=O)Nc1cc(-c2[nH]c3cccnc3c2-c2nc(C)ccc2F)ccn1` [Example 107, N-(4-(3-(3-Fluoro-6-methylpyridin-2-yl)-1H-pyrrolo[3,2-b]pyridin-2-yl)pyridin-2-yl)acetamide], the IC50 on HIS-TGFβR1 T204D came to 0.001 µM; at HIS-TGFβR2 WT it was 8.14 µM.
In the same order, the values of `COc1cnc2c(-c3cccc(C)n3)c(-c3ccnc(NC(C)=O)c3)[nH]c2c1` [Example 283, N-(4-(6-Methoxy-3-(6-methylpyridin-2-yl)-1H-pyrrolo[3,2-b]pyridin-2-yl)pyridin-2-yl)acetamide] are 0.001 µM and 1.12 µM.
The matching figures for `COc1ccc(-c2c(-c3ccnc(NC(C)=O)c3)[nH]c3c(C(C)O)ccnc23)cn1` (stereo not shown) [Example 230, N-(4-(7-(1-Hydroxyethyl)-3-(6-methoxypyridin-3-yl)-1H-pyrrolo[3,2-b]pyridin-2-yl)pyridin-2-yl)acetamide]: 0.0024 µM and 0.037 µM.
The matching figures for `CC(=O)Nc1cc(-c2[nH]c3cc(F)cnc3c2-c2ncc(Cl)s2)ccn1` [Example 206, N-(4-(3-(5-Chlorothiazol-2-yl)-6-fluoro-1H-pyrrolo[3,2-b]pyridin-2-yl)pyridin-2-yl)acetamide]: 0.0068 µM and 0.325 µM.
`CN(C)C1CCN(CC(=O)Nc2cc(-c3[nH]c4cc(Cl)cnc4c3-c3ccc(F)cn3)ccn2)CC1` [Example 245, N-(4-(6-Chloro-3-(5-fluoropyridin-2-yl)-1H-pyrrolo[3,2-b]pyridin-2-yl)pyridin-2-yl)-2-(4-(dimethylamino)piperidin-1-yl)acetamide]: the concentration for half-maximal inhibition (IC50) at HIS-TGFβR1 T204D was 0.002 µM; at HIS-TGFβR2 WT, 4.07 µM.
In the same order, the values of `CC(=O)Nc1cc(-c2[nH]c3c(CO)ccnc3c2-c2ccc(C)nc2)ccn1` [Example 280, N-(4-(7-(Hydroxymethyl)-3-(6-methylpyridin-3-yl)-1H-pyrrolo[3,2-b]pyridin-2-yl)pyridin-2-yl)acetamide] are 0.023 µM and 4.12 µM.
As for `COc1ccc(-c2c(-c3ccnc(NC(C)=O)c3)[nH]c3c(Cl)ccnc23)nc1` [Example 62, N-{4-[7-Chloro-3-(5-methoxypyridin-2-yl)-1H-pyrrolo[3,2-b]pyridin-2-yl]pyridin-2-yl}acetamide], the half-inhibitory concentration (IC50) was 0.009 µM on HIS-TGFβR1 T204D and > 15 µM on HIS-TGFβR2 WT.
